Reference: patent publication US10214512B2, “Factor XIA inhibitors” (MERCK SHARP & DOHME CORP., priority 2015, dated 2019)
pKi: −log10 of the molar value.

Assays:
[1] = molecular target: purified human Factor XIa (Homo sapiens (Human), UniProt P03951); assay: Factor XIa Assay; assay type: biochemical; settings: purified human Factor XIa 40 pM; substrate Z-Gly-Pro-Arg-AFC 100 μM; 50 mM HEPES pH 7.4; read-out: Human FXIa Ki
Procedure, shortened: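 Ki obtained from the dependence of uninhibited/inhibited initial-velocity ratio on inhibitor concentration, under a competitive-inhibition model. Reactions used 100 μM Z-Gly-Pro-Arg-AFC and 40 pM final human Factor XIa in pH 7.4 HEPES buffer with NaCl, CaCl2 and PEG 8000; run at rt or 37° C following pre-equilibration.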

[2] = molecular target: purified Human plasma Kallikrein (Homo sapiens (Human), UniProt P03952); assay: Kallikrein Assay; assay type: biochemical; settings: purified Human plasma Kallikrein 0.5 nM; substrate Acetyl-K-P-R-AFC; 50 mM HEPES pH 7.4; Ki from IC50 by Cheng Prusoff
Sequence of purified Human plasma Kallikrein (P03952 391-638): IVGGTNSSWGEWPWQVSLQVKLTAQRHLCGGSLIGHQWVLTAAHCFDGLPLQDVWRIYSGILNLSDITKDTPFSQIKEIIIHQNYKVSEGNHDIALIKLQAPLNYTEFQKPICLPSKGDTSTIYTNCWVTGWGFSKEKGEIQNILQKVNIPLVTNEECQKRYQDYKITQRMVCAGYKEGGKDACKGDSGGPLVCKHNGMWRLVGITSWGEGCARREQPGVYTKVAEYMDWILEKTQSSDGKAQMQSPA
Sequence of purified Human plasma Kallikrein (P03952 20-390 partner): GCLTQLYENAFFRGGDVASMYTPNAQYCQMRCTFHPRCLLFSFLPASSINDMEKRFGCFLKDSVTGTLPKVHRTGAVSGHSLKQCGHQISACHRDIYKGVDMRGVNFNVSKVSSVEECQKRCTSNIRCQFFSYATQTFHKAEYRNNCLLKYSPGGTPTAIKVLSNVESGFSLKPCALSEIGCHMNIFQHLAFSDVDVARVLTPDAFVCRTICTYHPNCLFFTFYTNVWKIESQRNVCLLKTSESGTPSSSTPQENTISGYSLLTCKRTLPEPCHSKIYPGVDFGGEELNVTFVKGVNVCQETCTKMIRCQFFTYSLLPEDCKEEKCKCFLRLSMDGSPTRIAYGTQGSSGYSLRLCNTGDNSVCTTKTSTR
Procedure, shortened: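 Purified human plasma kallikrein (0.5 nM) with fluorogenic Ac-K-P-R-AFC ([…]) in 50 mM HEPES pH 7.4, 150 mM NaCl, 5 mM CaCl2, 0.1% PEG 8000, at rt or 37 °C. Substrate hydrolysis rate read with and without inhibitor; IC50 from four-parameter logistic fit, converted to Ki by Cheng–Prusoff.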

Sequence of purified human Factor XIa (P03951 388-625): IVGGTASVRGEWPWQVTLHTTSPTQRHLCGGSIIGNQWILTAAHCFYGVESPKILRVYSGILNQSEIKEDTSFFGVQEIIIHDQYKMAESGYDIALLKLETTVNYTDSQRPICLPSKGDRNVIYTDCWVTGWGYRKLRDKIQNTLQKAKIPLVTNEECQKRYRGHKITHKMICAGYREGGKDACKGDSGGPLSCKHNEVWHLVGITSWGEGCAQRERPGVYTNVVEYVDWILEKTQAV
Sequence of purified human Factor XIa (P03951 19-387 partner): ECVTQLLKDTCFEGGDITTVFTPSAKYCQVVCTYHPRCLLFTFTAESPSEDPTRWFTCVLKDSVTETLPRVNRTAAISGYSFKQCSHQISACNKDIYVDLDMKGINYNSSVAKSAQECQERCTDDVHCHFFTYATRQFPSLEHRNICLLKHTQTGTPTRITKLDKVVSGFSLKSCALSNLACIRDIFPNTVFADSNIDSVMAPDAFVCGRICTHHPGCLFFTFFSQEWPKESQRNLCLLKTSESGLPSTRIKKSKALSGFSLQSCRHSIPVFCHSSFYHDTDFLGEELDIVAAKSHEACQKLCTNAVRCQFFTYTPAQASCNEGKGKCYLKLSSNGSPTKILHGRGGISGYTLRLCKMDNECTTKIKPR

COC(=O)Nc1ccc2c(c1)NC(=O)CCCCC(c1ccc(-c3c(F)ccc(Cl)c3F)c[n+]1[O-])c1cc[n+]([O-])c-2c1 (stereo not drawn) [Example 94, 9-(5-(3-Chloro-2,6-difluorophenyl)-1-oxidopyridin-2-yl)-2^4-((methoxycarbonyl)amino)-4-oxo-3-aza-1(2,4)-pyridin-1-iuma-2(1,2) -benzenacyclononaphane 1-oxide]
pKi [1]: 8.29 | pKi [2]: 7.95

COC(=O)Nc1ccc2c(c1)NC(=O)CCCCC(c1ccc(-c3cc(Cl)ccc3-n3cnnn3)cn1)c1nc-2c[nH]1 (stereo not drawn) [Example 97, methyl (Z)-(9-(5-(5-chloro-2-(1H-tetrazol-1-yl)phenyl)pyridin-2-yl)-4-oxo-1^1H-3-AZA-1(4,2)-imidazola-2(1,2)-benzenacyclononaphane-2^4-yl)carbamate]
pKi [1]: 8.48 | pKi [2]: 6.79

O=C1CCCCC(c2ccc(-c3cc(Cl)ccc3-n3cc(C(F)(F)F)nn3)c[n+]2[O-])c2cccc(c2)-c2c(cnn2C(F)F)N1 (stereo not drawn) [Example 165, 5-(5-chloro-2-(4-(trifluoromethyl)-1H-1,2,3-triazol-1-yl)phenyl)-2-(1^1-(difluoromethyl)-8-oxo-1^1H-9-aza-1(5,4)-pyrazola-2(1,3) -benzenacyclononaphane-3-Yl)pyridine 1-oxide]
pKi [1]: 9.68 | pKi [2]: 8.24
